From paper PMC10053230, “Constituents of the Stem Bark of Symphonia globulifera Linn. f. with Antileishmanial and Antibacterial Activities” (Molecules, 2023) come the findings set out here.

Values after ≈ are worked out from the molar mass of the structure shown. Where two headings read alike, the source gives them in different places.

In general, IC50 refers to the concentration that inhibits the measured activity by half. As usually defined, the CC50 is the concentration at which the toxic effect on the cells reaches its halfway point. One may read the MIC as the lowest concentration that inhibits growth of the organism.

In data set [1] the test system is L. donovani NR-48822 promastigotes. As to the kind of experiment: In vitro antileishmanial assay, resazurin colorimetric method. The class given is cell-based, Leishmania donovani. To be noted: 28 h at 28 °C, triplicate; for IC50: Leishmania donovani, read-out: Antileishmanial Activity IC50 ± SD. On the procedure: The antileishmanial activity on cultured L. donovani 1S (MHOM/SD/62/1S) promastigotes was evaluated using the resazurin colorimetric method as described by Siqueira-Neto et al. (2010) with little modifications. They were all assessed in triplicate at concentrations ranging from 100 to 0.16 µg/mL for the extract and 50–0.08 µg/mL for the compounds. Test plates were incubated for 28 h at 28 °C, followed by the addition of 1 mg/mL resazurin. The negative and positive controls were 0.1% DMSO and amphotericin B (10–0.016 µg/mL), respectively. The cytotoxicity profile of the crude extract and compounds was assessed using the Alamar blue assay (Mosman, 1983) against Raw 264.7 macrophage cells.
On the technique in general: Alamar Blue is a resazurin reagent that responds to reducing activity.

The nature of data set [2]: Cytotoxicity, Alamar blue assay. In kind it is cell-based. To be noted: mouse; Raw 264.7 macrophage cells; read-out: Macrophages CC50 ± SD. On the procedure: (§1) (2010) with little modifications. […] Test plates were incubated for 28 h at 28 °C, followed by the addition of 1 mg/mL resazurin. […] The cytotoxicity profile of the crude extract and compounds was assessed using the Alamar blue assay (Mosman, 1983) against Raw 264.7 macrophage cells.

Data set [3] relates to Raw 264.7 macrophage cells. Nature of the data set: Cytotoxicity, Alamar blue assay. In kind it is cell-based. To be noted: for Selectivity Index SI (=CC50/IC50): CC50 Raw 264.7 macrophages / IC50 L. donovani. On the procedure: as §1
A further data set relates to S. aureus ATCC25923. As to the kind of experiment: Antibacterial broth microdilution (MIC). In kind it is cell-based. To be noted: Staphylococcus aureus, read-out: Antibacterial Activity MIC, Sau. On the procedure: (§2) The minimum inhibitory concentration (MIC) of the samples was evaluated following the broth microdilution method as described by Eloff, with light modifications. The extracts, compounds, and reference drug were dissolved in DMSO-MHB. […] Gentamicin was used as the positive control. Briefly, one hundred microliters of Mueller Hinton Broth was added to all wells of the 96-well plate, and 100 µL of the compounds/extracts was introduced into the wells in the first row (A) and mixed thoroughly. The sample mixture (100 µL) was removed from the well from row A to perform a twofold serial dilution down the rows (B–H). The last 100 µL was discarded. Then, 100 µL of the inoculum was introduced into the corresponding wells. The final volume in each well was 200 µL. Each extract concentration was assayed in triplicate and each test was performed twice. After an incubation period of 18 h at 37 °C, 20 µL of Alamar Blue was added to each well. The plates were then re-incubated for 30 min at 37 °C. A blue color in the well was scored as ‘‘no bacterial growth”, while a pink color was scored as a ‘‘growth occurrence”. MIC values were read at those concentrations where a pronounced change in color formation was noticed (from blue to pink).

A further data set concerns S. enterica NR13555. Nature of the data set: Antibacterial broth microdilution (MIC). In kind it is cell-based. To be noted: Salmonella enterica, read-out: Antibacterial Activity MIC, Se. On the procedure:
as §2
A general note: Broth dilution looks for growth in wells or tubes with falling amounts of substance.

For data set [4], the system named is Staphylococcus aureus ATCC43300. Nature of the data set: Antibacterial broth microdilution (MIC). In kind it is cell-based. To be noted: read-out: Antibacterial Activity MIC, Sa. On the procedure: as §2
The next data set deals with Salmonella typhi CPC. As to the kind of experiment: Antibacterial broth microdilution (MIC). In kind it is cell-based. To be noted: Salmonella enterica, read-out: Antibacterial Activity MIC, St. On the procedure:
as §2

In data set [5] the test system is Klebsiella pneumoniae clinical isolate. Nature of the data set: Antibacterial broth microdilution (MIC). The class given is cell-based. To be noted: read-out: Antibacterial Activity MIC, Kpc. On the procedure:
as §2

Data set [6] deals with Pseudomonas aeruginosa HM801. As to the kind of experiment: Antibacterial broth microdilution (MIC). In kind it is cell-based. On the procedure: as §2
The next data set deals with K. pneumoniae NR41388. As to the kind of experiment: Antibacterial broth microdilution (MIC). In kind it is cell-based, Klebsiella pneumoniae. On the procedure: as §2
Where [7] appears, read: Klebsiella pneumoniae clinical isolate.
The mark [8] stands for this setting: Pseudomonas aeruginosa HM801, read-out: Antibacterial Activity MIC, Pa.

For `COc1cc2c(=O)c3c(O)c4c(c(CC=C(C)C)c3oc2c(O)c1O)OC(C)(C)C=C4` [Compound 7, xanthone V2], the IC50 in [1] was 12.9 ± 1.11 µg/mL (≈ 30.4 µM). Also, the CC50 in [2] was more than 20 µg/mL. The “Selectivity Index SI (=CC50/IC50)” value in data set [3] is listed as more than 1.54.

As to `CNC(C)C1CCC(N)C(OC2C(N)CC(N)C(OC3OCC(C)(O)C(NC)C3O)C2O)O1` (stereo not shown) [Gentamycin, reference compound], the MIC in the data set with S. aureus ATCC25923 stood at 0.03 µg/mL (≈ 0.0628 µM); in the data set on S. enterica NR13555, 0.07 µg/mL (≈ 0.147 µM); in data set [4], 0.07 µg/mL (≈ 0.147 µM); in the data set on Salmonella typhi CPC it was 0.048 µg/mL (≈ 0.101 µM); in data set [5] (setting [7]), 0.048 µg/mL (≈ 0.101 µM); in data set [6] (setting [8]), 0.048 µg/mL (≈ 0.101 µM).

With `C=C(C)CCC1CC2(CC=C(C)C)C(=O)C(=C(O)c3ccc(O)c(O)c3)C(=O)C(CC=C(C)C)(C2=O)C1(C)CCC=C(C)C` (stereo not shown) [Compound 1, guttiferone U], in the data set with K. pneumoniae NR41388, the “Antibacterial Activity MIC, Kp” value was 62.5 µg/mL. The MIC with S. aureus ATCC25923 amounted to 3.9 µg/mL (≈ 6.47 µM); with S. enterica NR13555, 62.5 µg/mL (≈ 104 µM); in [4], 125 µg/mL (≈ 207 µM); in the data set with Salmonella typhi CPC, 3.9 µg/mL (≈ 6.47 µM); in data set [5] (setting [7]), 3.9 µg/mL (≈ 6.47 µM); in [6] (setting [8]) it was 3.9 µg/mL (≈ 6.47 µM). Moreover, the IC50 in data set [1] is 12.9 ± 1.11 µg/mL (≈ 21.4 µM). Moreover, in data set [2], the CC50 was determined as 28.1 ± 5.72 µg/mL (≈ 46.5 µM). For the same compound, the “Selectivity Index SI (=CC50/IC50)” value in data set [3] is 2.17.

As to `CC(C)=CCCC(C)=CCCC(C)=CCCC1(C)CCC2=C(O1)C(C)(O)C(O)C2=O` (stereo not shown) [Compound 4, 12-farnesyl-6,7-dihydroxy-7-methyl-3,4,6,7-tetrahydrocyclopenta[b]pyran-5(2H)-one], the “Antibacterial Activity MIC, Kp” value in the data set on K. pneumoniae NR41388 was 62.5 µg/mL. Moreover, the MIC in the data set on S. aureus ATCC25923 was 62.5 µg/mL (≈ 150 µM); in the data set with S. enterica NR13555 it was 125 µg/mL (≈ 300 µM); in data set [4], 500 µg/mL (≈ 1200 µM); with Salmonella typhi CPC it was 31.2 µg/mL (≈ 74.9 µM); in [5] (Klebsiella pneumoniae), 31.2 µg/mL (≈ 74.9 µM); in data set [6] (Pseudomonas aeruginosa, HM801, read-out: Antibacterial Activity MIC, Pa) it was 31.2 µg/mL (≈ 74.9 µM). Moreover, the IC50 in data set [1] came to 14 ± 1.14 µg/mL (≈ 33.7 µM). In addition, the CC50 in [2] was more than 20 µg/mL.

With `COc1cc2c(=O)c3c(O)c4c(c(CC=C(C)C)c3oc2c(O)c1OC)OC(C)(C)C=C4` [Compound 6, gaboxanthone], the IC50 in data set [1] came out at 16 ± 1.2 µg/mL (≈ 36.4 µM). Besides, the CC50 in data set [2] was more than 20 µg/mL. Besides, in data set [3], the “Selectivity Index SI (=CC50/IC50)” value is listed as more than 1.25.

As for “1,5-dihydroxy-3-methoxyxanthone [Compound 10]”, in [1], the “Antileishmanial Activity IC50 ± SD” value was found to be 47.04 ± 1.67 µg/mL. Further, the “Macrophages CC50 ± SD” value in [3] (Raw 264.7 macrophage cells) is more than 20 µg/mL.

Turning to `C[C@@H]1[C@H](O)[C@@H](C)/C=C/C=C/C=C/C=C/C=C/C=C/C=C/[C@H](O[C@@H]2O[C@H](C)[C@@H](O)[C@H](N)[C@@H]2O)C[C@@H]2O[C@](O)(C[C@@H](O)C[C@@H](O)[C@H](O)CC[C@@H](O)C[C@@H](O)CC(=O)O[C@H]1C)C[C@H](O)[C@H]2C(=O)O` [Amphotericin B, reference compound], the IC50 in data set [1] came out at 0.048 µg/mL (≈ 0.0519 µM).

In the case of `CC1(C)C=Cc2c(cc3oc4c(O)c5c(cc4c(=O)c3c2O)C=CC(C)(C)O5)O1` [Compound 8, pyranojacareubin], the IC50 in data set [1] is 12.9 ± 1.11 µg/mL (≈ 32.9 µM). Also, in [2], the CC50 was more than 20 µg/mL. In data set [3], the “Selectivity Index SI (=CC50/IC50)” value was more than 1.54.
